According to patent publication US7964613B2 (Asahi Kasei Pharma Corporation, priority 2007, dated 2011):

Legend:
intraocular pressure [1] = assay: Rabbit intraocular pressure reduction enhancing action, Test Example 7-2 (combination use with timolol maleate); format: in vivo, Japanese white rabbit; details: Table 6; 19-1 compound 0.01 weight % aqueous solution 50 μL, Timoptol 50 μL; difference relative to control group at 1, 2, 4 hours; 12 rabbits
Experimental: As a test compound, the 19-1 compound was dissolved in physiological saline, and the solution was neutralized by addition of sodium hydroxide (pH 7.0 to 8.0) to prepare a 0.01 weight % aqueous solution (19-1 compound aqueous solution). As a drug for combination use, timolol maleate (trade name: Timoptol, Santen Pharmaceutical) was used as an adrenergic receptor β blocker, as the marketed formulation as it was.
A Japanese white rabbit having a body weight of about 2 kg was placed in a positioner and naturalized for one week before the experiment. An opthalmologic local anesthesant (Benoxil) was administered to both eyes, and then intraocular pressure before instillation was measured by using a tonometer (Classic 30, Solan). […] The intraocular pressure thereafter was measured for each group 1, 2 and 4 hours after the second administration of the test compound, and the difference of the measured values at each measurement time for the each group and the control group was considered an intraocular pressure reduction value of each group. The largest difference of the intraocular pressure values relative to the control group among those of the measured values of the measurement times was considered the maximum intraocular pressure reduction value (max ? IOP) of each drug group.

intraocular pressure [2] = assay: Rabbit intraocular pressure reduction enhancing action, Test Example 7-1 (combination use); format: in vivo, Japanese white rabbit; details: 19-1 compound 0.01 weight % aqueous solution 50 μL, left-right eye difference at 2, 4, 6 hours, six rabbits
Experimental: However, the effect is not limited to the 19-1 compound, and the ophthalmic solution concentration of the 19-1 compound is not limited to those used in this test example. Moreover, as for the test compound used for combination use, similar effect can be obtained also with the compounds of the present invention represented with the example numbers mentioned in Test Example 3.
As a test compound, the 19-1 compound was dissolved in physiological saline, and the solution was neutralized by addition of sodium hydroxide (pH 7.0 to 8.0) to prepare a 0.01 weight % aqueous solution (19-1 compound aqueous solution). As the drugs for combination use, isopropyl unoprostone (trade name: Rescula, Santen Pharmaceutical) was used as a prostaglandin-related drug, and brinzolamide hydrochloride (trade name: Azopt, Alcon Japan) was used as […], as the marketed formulations as they were.
A Japanese white rabbit having a body weight of about 2 kg was placed in a positioner and naturalized for one week before the experiment. An opthalmologic local anesthesant (Benoxil) was administered to both eyes, and then intraocular pressure before instillation was measured by using a tonometer (Classic 30, Solan). A test aqueous solution or the drug for combination use was administered to the left eye, and the right eye was not treated (control eye). The test groups consisted of (1) control group, (2) group instilled only with the 19-1 compound aqueous solution (single drug group 1), (3) group instilled only with the drug for combination use (single drug group 2), and (4) group instilled with the drug for combination use and the 19-1 compound aqueous solution (combination use group), and six rabbits were used for each group. As for the rabbits of these groups, 50 μL of physiological saline was first instilled to the control group, single drug group 1, and single drug group 2, and the drug for combination use was first instilled in the same volume to the combination use group. […] The intraocular pressure thereafter was measured for each group 2, 4 and 6 hours after the second administration of the test compound, and the difference of the measured values for the left and right eyes at each measurement time was considered an intraocular pressure reduction value of each group. The largest difference of the intraocular pressure values for the left and right eyes among those of the measured values of the measurement times was considered the maximum intraocular pressure reduction value (max ? IOP) of each drug group.

hippocampus nerve cells = assay: Effect of neurite outgrowth; format: cell-based, Wistar rat; details: 22 hours
Experimental: A Lab-Tek culture slide (4-well) was coated with poly-L-lysine (Sigma). A pregnant Wistar rat was used, and anesthetized with ether on day 18 of gestation. Then, a rat fetus was taken out from the rat, and the hippocampus was extracted from the brain of the fetus, put into a phosphate buffered physiological saline containing 0.1% trypsin, and incubated at 37° C. for 10 minutes. The hippocampus precipitated by centrifugation was ground in a medium containing 10% heat-inactivated fetal bovine serum by using a pipet to obtain hippocampus nerve cells. The cells were finally suspended in a medium containing B27 Supplement (Gibco), and plated on the preliminarily coated Lab-Tek culture slide at a density of 50,000 cells/well. After adhesion of the cells (about 2 hours), a drug was added at a desired concentration, and the slide was further incubated at 37° C. for 22 hours under 5% CO2. […]
After the incubation, the cells were fixed with 4% paraformaldehyde, and immunostained by using rabbit anti-beta-III-tubulin antibodies (Covance). Images of the nerve cells were captured into a computer by using a digital camera (DP-70, Olympus) installed in a fluorescence microscope (Olympus). Images of 20 to 30 of arbitrary sites on the slide were captured, and lengths of the axial fivers of 200 to 300 nerve cells were measured by using NIH imaging software for each drug. […]

| SMILES | Max IOP (maximum intraocular pressure reduction value) (intraocular pressure [1]) [mmHg] | Max IOP (maximum intraocular pressure reduction value) (intraocular pressure [2]; Table 4, Azopt 50 μL) [mmHg] | Max IOP (maximum intraocular pressure reduction value) (intraocular pressure [2]; Table 5, Rescula 50 μL) [mmHg] | neurites extended compared with non-treated nerve cells (hippocampus nerve cells; concentration of 1 μM) [%] | neurites extended compared with non-treated nerve cells (hippocampus nerve cells; concentration of 10 μM) [%] |
| --- | --- | --- | --- | --- | --- |
| N[C@H]1CCN(S(=O)(=O)c2cccc3cncc(Cl)c23)C1 [Example 19-1, (S)-3-Amino-1-(4-chloro-5-isoquinolinesulfonyl)pyrrolidine] | 4.1 | 4.3 | 4.3 |  |  |
| CN[C@H]1CCN(S(=O)(=O)c2cccc3c(O)ncc(Cl)c23)C1 [Example 36-1, (S)-1-(1-Hydroxy-4-chloro-5-isoquinolinesulfonyl)-3-(methylamino)pyrrolidine] |  |  |  | 28 | 43 |
